Experimental data taken from the NIST ThermoML archive (doi:10.1016/j.fluid.2016.08.036).
Numbers after ± are expanded uncertainties.

Test: mn = molality of the nth substance listed, in mol/kg
Settings: 87 kPa, Liquid, Vibrating tube method

CCn1cc[n+](C)c1.O=S(=O)([O-])O [1-ethyl-3-methylimidazolium hydrogen sulfate] + O
mass density [kg/m3]
Settings | m1 = 0.0363 | m1 = 0.0687 | m1 = 0.1026 | m1 = 0.1384 | m1 = 0.1716 | m1 = 0.2049 | m1 = 0.2391 | m1 = 0.2718 | m1 = 0.3034 | m1 = 0.3375
293.15 K | 1000.86 ± 6 | 1003.08 ± 6 | 1005.3 ± 6 | 1007.57 ± 6 | 1009.63 ± 6 | 1011.67 ± 6 | 1013.72 ± 6 | 1015.68 ± 6 | 1017.53 ± 6 | 1019.54 ± 6
298.15 K | 999.65 ± 6 | 1001.82 ± 6 | 1003.99 ± 6 | 1006.22 ± 6 | 1008.23 ± 6 | 1010.23 ± 6 | 1012.24 ± 6 | 1014.17 ± 6 | 1016 ± 6 | 1017.98 ± 6
303.15 K | 998.2 ± 6 | 1000.33 ± 6 | 1002.46 ± 6 | 1004.64 ± 6 | 1006.63 ± 6 | 1008.6 ± 6 | 1010.58 ± 6 | 1012.47 ± 6 | 1014.26 ± 6 | 1016.21 ± 6
308.15 K | 996.54 ± 6 | 998.63 ± 6 | 1000.73 ± 6 | 1002.87 ± 6 | 1004.82 ± 6 | 1006.76 ± 6 | 1008.7 ± 6 | 1010.58 ± 6 | 1012.34 ± 6 | 1014.25 ± 6
313.15 K | 994.68 ± 6 | 996.73 ± 6 | 998.8 ± 6 | 1000.91 ± 6 | 1002.83 ± 6 | 1004.74 ± 6 | 1006.66 ± 6 | 1008.5 ± 6 | 1010.24 ± 6 | 1012.13 ± 6
